In the assay the test system is 2nd sensory neuron in the trigeminal nucleus caudalis (TNC). Briefly: rat model of migraine: sensitization induced by inflammatory soup applied to the dura, monitored by electrophysiology in the TNC. The assay is classed as in vivo. As to conditions: eletriptan given 3 hours after inflammatory soup on the dura; observed as late as 5.5 hours after sensitization.

With `CN1CCC[C@@H]1Cc1c[nH]c2ccc(CCS(=O)(=O)c3ccccc3)cc12` [eletriptan], the “reversal of sensitization of responses to sensory stimuli (brush and pin)” value is given as “did not reverse the sensitization”.

Values taken from US20070191462A1, “Combination of A 5-HT(1) Receptor Agonist and an Alpha-2-Delta Ligand for the Treatment of Migraine” (Pfizer Limited, priority 2004, published 2007).
